Source: US10526337B2, “Heteroaryl derivative or pharmaceutically acceptable salt thereof, preparation method therefor, and pharmaceutical composition for preventing or treating diseases associated with PI3 kinases, containing same as active ingredient” (KOREA RESEARCH INSTITUTE OF CHEMICAL TECHNOLOGY, priority 2015, dated 2020)

Key:
Conditions in all cases: ATP=10 uM, sample concentration=100 nM
[1] = target: T1, PI3 Kinase (p110α/p85α) (h) (Homo sapiens, UniProt P42336); test: Inhibition of phosphatidylinositol 3-kinase alpha (PI3K α), pAkt Western blotting in EGF-stimulated MDA-MB-453 cells; format: cell-based
T1 construct: endogenous in cells; host or cells: MDA-MB-453
Method: The inhibition of phosphatidylinositol 3 kinase alpha (PI3K α) by those compounds prepared in Examples 1˜98 was investigated by the following experiment. The inhibition activity of each compound was measured in the following conditions: ATP=10 uM, and sample concentration=100 nM.
Human breast cancer cells (MDA-MB-453) cultured in DMEM (Dulbecco's Modified Eagle Medium, Hyclon, SH30243.01) supplemented with 10% fetal bovine serum (Hyclon, USA) were distributed in a 12-well plate at the density of 1,000,000 cells/well. The cells were stabilized in a 37° C. CO2 for 24 hours and then treated with each compound for 1 and half hours. The cells were treated with 10 ng/mL of EGF (Epidermal Growth Factor, 10 μg/mL; R&D, 2150-C5) to increase the intracellular activity of PI3K alpha. 5 minutes later, the medium was discarded and the cells were washed with cold PBS (phosphate buffered saline, Gibco, 14190-250). PBS was then eliminated completely by using a pipette. Western blotting was performed as described in step 2 to evaluate the intracellular PI3K alpha activity.
(§1) The stimulated cells were transferred in a 1.5 mL tube, followed by centrifugation at 3000 rpm for 1 minute. 100 μL of RIPA buffer (radioimmunoprecipitation assay buffer, 50 mM Tris-HCl, 5 mM EDTA, 150 mM NaCl, 1% NP-40, 1 mM PMSF, pH 8.0; ELPIS, Korea) was added thereto, which was stored in a 4° C. refrigerator for 12 hours. Centrifugation was performed at 4° C. at 14,000 rpm for 20 minutes. The supernatant was transferred into a new 1.5 mL tube. Protein was quantified by BCA (bicinchoninic acid) method and samples were prepared. The composition of the sample was as follows: sample buffer (ELPIS, EBA-1052) 5×, protein 10 μg, and 1× sample buffer to make the total volume 20 μL. The sample was heated at 100° C. for 5 minutes. The evaporated water vapor was condensed in a refrigerator. The liquid stained on the wall was fallen down by centrifugation for a few seconds. The sample proceeded to 10% SDS (Sodium Dodecyl Sulfate) acrylamide gel for separation. The separated protein was transferred onto PVDF (poly-vinyl difluoride) membrane, followed by reaction with pAkt (phospho protein kinase B) antibody (Ser473 or Thr308; Cell signaling, 9271s or 13038s) for 12 hours at 4° C. The membrane was washed with TBST (Tris-Buffered Saline with Tween 20, 10 mM Tris-HCl, pH 7.5, 150 mM NaCl, 0.1% Tween-20) three times for 5 minutes each, to which the secondary antibody (rabbit antibody, Santacruz, sc-2004) was added, followed by reaction at room temperature for 2 hours. The membrane was washed with TBST three times for 10 minutes each, to which ECL (enhanced chemiluminescence, Thermo, NCI34095KR) was sprayed. Bands were investigated by using LAS-3000.

[2] = target: T2, PI3 Kinase (p110β/p86α) (h) (Homo sapiens, UniProt P42338); test: Inhibition of phosphatidylinositol 3-kinase beta (PI3K β), pAkt Western blotting in LPA-stimulated PC3 cells; format: cell-based
T2 construct: endogenous in cells; host or cells: PC3
Method: as §1
The inhibition of phosphatidylinositol 3 kinase beta (PI3K β) by those compounds prepared in Examples 1˜98 was investigated by the following experiment. The inhibition activity of each compound was measured in the following conditions: ATP=10 uM, and sample concentration=100 nM.
Human prostate cancer cells (PC3 cells) cultured in DMEM (Dulbecco's Modified Eagle Medium, Hyclon, SH30243.01) supplemented with 10% fetal bovine serum (Hyclon, USA) were distributed in a 12-well plate at the density of 1,000,000 cells/well. The cells were stabilized in a 37° C. CO2 for 24 hours and then treated with each compound for 1 and half hours. The cells were treated with 10 ng/mL of LPA (lysophosphatidic acid, 10 μg/mL; R&D, 2150-05) to increase the intracellular activity of PI3K beta. 5 minutes later, the medium was discarded and the cells were washed with cold PBS (phosphate buffered saline, Gibco, 14190-250). PBS was then eliminated completely by using a pipette. Western blotting was performed according to the same manner as described in step 2 of Experimental Example 1 to evaluate the intracellular PI3K beta activity.

[3] = target: T3, PI3 Kinase (p120γ) (h) (Homo sapiens, UniProt P48736); test: Inhibition of phosphatidylinositol 3-kinase gamma (PI3K γ), pAkt Western blotting in C5a-stimulated RAW264.7 macrophages; format: cell-based, mouse
T3 construct: endogenous in cells; host or cells: RAW264.7
Outline: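 Enzyme: PI3Kγ activity measured at ATP=10 uM with compound at 100 nM. Cellular: RAW264.7 macrophages treated with compound 1.5 h, then stimulated with 10 ng/mL C5a for 5 min; lysates (10 μg protein) probed by Western blot for pAkt (Ser473 or Thr308), ECL detection.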

[4] = target: T4, PI3 Kinase (p110δ/p85α) (h) (Homo sapiens, UniProt O00329); test: Inhibition of phosphatidylinositol 3-kinase delta (PI3K δ), pAkt Western blotting in IgM-stimulated Raji cells; format: cell-based
T4 construct: endogenous in cells; host or cells: Raji
Outline: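 Raji cells were treated with compound for 1.5 h, then stimulated with 0.25 μg/mL IgM for 30 min to activate PI3Kδ. Lysates were Western blotted for pAkt (Ser473 or Thr308) with ECL detection. Conditions stated: ATP=10 uM, sample concentration=100 nM.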

T2 sequence (P42338 whole entry): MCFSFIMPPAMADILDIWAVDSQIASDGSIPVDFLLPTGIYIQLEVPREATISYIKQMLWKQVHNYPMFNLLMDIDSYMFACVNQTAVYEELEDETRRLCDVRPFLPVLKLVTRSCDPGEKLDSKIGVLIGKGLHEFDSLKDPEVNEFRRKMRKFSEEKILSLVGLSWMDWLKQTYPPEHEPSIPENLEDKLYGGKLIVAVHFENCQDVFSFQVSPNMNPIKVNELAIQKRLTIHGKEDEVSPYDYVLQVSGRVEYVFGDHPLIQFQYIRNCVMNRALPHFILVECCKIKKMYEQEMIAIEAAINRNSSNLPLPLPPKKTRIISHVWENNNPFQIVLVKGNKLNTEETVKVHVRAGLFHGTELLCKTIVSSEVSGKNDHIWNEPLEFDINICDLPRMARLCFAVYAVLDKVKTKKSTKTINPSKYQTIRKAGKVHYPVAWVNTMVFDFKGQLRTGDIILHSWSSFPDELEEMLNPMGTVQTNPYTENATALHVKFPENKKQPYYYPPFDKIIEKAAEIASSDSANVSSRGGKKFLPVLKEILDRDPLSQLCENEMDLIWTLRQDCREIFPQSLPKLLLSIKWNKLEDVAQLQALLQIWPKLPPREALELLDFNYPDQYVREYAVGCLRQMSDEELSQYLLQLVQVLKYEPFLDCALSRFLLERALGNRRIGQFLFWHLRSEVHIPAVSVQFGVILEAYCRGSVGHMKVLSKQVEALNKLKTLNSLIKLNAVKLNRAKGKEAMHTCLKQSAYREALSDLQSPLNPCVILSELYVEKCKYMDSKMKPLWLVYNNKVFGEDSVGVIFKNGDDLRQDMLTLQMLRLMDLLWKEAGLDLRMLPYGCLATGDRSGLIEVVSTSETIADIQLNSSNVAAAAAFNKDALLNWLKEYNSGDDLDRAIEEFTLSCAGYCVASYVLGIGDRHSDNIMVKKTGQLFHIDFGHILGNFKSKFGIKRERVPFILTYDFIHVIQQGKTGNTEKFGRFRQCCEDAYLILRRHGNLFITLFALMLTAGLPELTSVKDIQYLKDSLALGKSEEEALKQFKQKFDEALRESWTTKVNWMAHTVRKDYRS
T2 sequence (P27986 whole entry partner): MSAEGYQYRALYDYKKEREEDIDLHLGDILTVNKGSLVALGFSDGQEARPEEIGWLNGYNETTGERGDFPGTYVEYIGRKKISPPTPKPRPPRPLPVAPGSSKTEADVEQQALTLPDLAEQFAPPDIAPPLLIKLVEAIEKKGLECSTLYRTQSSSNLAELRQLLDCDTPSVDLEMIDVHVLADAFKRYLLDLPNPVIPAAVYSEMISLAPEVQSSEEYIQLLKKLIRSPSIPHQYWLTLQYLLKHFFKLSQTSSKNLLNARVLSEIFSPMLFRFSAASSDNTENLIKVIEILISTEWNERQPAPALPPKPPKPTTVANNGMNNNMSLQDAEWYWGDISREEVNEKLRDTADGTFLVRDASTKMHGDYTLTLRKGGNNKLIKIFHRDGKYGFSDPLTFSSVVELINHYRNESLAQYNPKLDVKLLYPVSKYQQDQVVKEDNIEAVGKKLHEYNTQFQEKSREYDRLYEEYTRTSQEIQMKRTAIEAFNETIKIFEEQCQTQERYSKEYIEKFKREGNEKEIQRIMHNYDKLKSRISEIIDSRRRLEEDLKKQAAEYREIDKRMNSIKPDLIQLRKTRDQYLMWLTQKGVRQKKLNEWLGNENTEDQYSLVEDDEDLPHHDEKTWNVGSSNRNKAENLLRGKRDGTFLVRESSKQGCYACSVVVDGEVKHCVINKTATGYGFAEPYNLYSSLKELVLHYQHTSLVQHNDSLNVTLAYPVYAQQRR
T4 sequence (O00329 whole entry): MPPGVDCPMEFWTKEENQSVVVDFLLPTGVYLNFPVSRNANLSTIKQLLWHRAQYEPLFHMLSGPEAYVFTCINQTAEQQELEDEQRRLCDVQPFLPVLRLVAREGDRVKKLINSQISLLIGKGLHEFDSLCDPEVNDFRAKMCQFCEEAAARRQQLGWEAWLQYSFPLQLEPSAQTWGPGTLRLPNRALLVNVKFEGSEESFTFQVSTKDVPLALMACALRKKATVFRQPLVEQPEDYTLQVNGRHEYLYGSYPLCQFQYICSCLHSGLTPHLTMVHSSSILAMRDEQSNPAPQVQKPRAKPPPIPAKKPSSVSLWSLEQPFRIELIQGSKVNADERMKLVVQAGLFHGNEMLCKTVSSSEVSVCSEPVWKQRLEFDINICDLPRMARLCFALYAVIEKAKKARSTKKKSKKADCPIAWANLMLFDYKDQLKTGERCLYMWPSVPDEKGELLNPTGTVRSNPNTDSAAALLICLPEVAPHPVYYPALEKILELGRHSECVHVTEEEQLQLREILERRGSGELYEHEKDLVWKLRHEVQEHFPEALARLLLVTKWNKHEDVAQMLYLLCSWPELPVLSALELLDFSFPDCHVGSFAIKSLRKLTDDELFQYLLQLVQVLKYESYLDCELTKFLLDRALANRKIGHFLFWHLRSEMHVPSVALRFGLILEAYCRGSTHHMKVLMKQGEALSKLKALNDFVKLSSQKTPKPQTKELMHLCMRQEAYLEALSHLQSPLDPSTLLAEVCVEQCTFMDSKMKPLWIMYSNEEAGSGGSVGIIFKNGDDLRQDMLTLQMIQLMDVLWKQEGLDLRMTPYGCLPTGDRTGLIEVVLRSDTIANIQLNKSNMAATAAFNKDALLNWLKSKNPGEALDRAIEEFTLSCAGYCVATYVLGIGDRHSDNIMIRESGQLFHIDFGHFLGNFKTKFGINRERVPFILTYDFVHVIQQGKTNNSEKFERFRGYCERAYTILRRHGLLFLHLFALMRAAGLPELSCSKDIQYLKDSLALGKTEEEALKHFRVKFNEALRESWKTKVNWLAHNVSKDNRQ
T4 sequence (P27986 whole entry partner): as the sequence (P27986 whole entry partner) above
T3 sequence (P48736 whole entry): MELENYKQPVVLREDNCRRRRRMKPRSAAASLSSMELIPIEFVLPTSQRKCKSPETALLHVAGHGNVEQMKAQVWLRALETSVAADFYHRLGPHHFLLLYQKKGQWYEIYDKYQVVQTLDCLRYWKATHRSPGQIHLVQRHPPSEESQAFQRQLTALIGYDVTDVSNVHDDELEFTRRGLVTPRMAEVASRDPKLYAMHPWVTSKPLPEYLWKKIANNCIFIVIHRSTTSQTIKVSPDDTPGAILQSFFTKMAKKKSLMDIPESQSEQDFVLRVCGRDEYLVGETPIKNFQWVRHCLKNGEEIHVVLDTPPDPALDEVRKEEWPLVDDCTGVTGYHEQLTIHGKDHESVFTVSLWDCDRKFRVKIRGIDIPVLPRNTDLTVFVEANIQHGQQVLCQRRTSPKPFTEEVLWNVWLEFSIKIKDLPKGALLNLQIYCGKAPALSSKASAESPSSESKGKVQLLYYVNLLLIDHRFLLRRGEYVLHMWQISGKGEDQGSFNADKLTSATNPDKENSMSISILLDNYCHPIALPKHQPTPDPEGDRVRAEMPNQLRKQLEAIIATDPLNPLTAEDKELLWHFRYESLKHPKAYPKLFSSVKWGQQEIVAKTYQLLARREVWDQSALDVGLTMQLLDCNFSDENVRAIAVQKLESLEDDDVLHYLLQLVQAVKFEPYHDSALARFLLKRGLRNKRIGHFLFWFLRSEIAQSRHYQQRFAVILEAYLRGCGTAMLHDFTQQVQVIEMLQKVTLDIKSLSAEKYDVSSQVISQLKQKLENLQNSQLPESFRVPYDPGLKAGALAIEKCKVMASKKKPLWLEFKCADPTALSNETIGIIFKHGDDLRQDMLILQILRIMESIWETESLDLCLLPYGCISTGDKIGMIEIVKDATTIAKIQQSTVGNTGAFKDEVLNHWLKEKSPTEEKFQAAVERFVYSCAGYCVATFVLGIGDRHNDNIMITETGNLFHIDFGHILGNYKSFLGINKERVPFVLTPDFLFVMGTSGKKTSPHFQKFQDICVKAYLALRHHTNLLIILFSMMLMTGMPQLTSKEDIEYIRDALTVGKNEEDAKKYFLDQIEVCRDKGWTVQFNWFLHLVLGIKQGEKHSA

Row | SMILES | IC50 [1] [nM] | IC50 [2] [nM] | IC50 [3] [nM] | IC50 [4] [nM]
1 | C[C@H](Nc1ncnc2c1C(=O)N(C)CN2)c1c(Cl)c2cccc(Cl)c2c(=O)n1-c1ccccc1 [Example 40, (S)-5-((1-(4,8-dichloro-1-oxo-2-phenyl-1,2-dihydroisoquinoline-3-yl)ethyl)amino)-3-methyl-2,3-dihydropyrimido[4,5-d]pyrimidine-4(1H)-one] | > 500 | > 500 | 10 to 500 | < 10
2 | C[C@H](Nc1ncnc2[nH]ccc(=O)c12)c1nc2cccc(Cl)c2c(=O)n1-c1cccnc1 [Example 2, (S)-4-((1-(5-chloro-4-oxo-3-(pyridine-3-yl)-3,4-dihydroquinazoline-2-yl)ethyl)amino)pyrido[2,3-d]pyrimidine-5(8H)-one] | > 500 | > 500 | 10 to 500 | < 10
3 | Nc1nc(N2CCC[C@H]2c2cc3cccc(Cl)c3c(=O)n2-c2ccccc2)c2c(=O)cc[nH]c2n1 [Example 16, (S)-2-amino-4-(2-(8-chloro-1-oxo-2-phenyl-1,2-dihydroisoquinoline-3-yl)pyrrolidine-1-yl)pyrido[2,3-d]pyrimidine-5(8H)-one] | > 500 | > 500 | 10 to 500 | 10 to 500
4 | C[C@H](Nc1ncnc2[nH]ccc(=O)c12)c1nc2ccc(F)cc2c(=O)n1-c1cccnc1 [Example 28, (S)-4-((1-(6-fluoro-4-oxo-3-(pyridine-3-yl)-3,4-dihydroquinazoline-2-yl)ethyl)amino)pyrido[2,3-d]pyrimidine-5(8H)-one] | > 500 | > 500 | > 500 | 10 to 500
5 | O=c1cc[nH]c2ncnc(N3CCC[C@H]3c3cc4cccc(Cl)c4c(=O)n3-c3ccccc3)c12 [Example 14, (S)-4-(2-(8-chloro-1-oxo-2-phenyl-1,2-dihydroisoquinoline-3-yl)pyrrolidine-1-yl)pyrido[2,3-d]pyrimidine-5(8H)-one] | > 500 | > 500 | 10 to 500 | 10 to 500
6 | C[C@H](Nc1ncnc2[nH]cc(Cl)c(=O)c12)c1nc2cccc(Cl)c2c(=O)n1-c1ccccc1 [Example 22, (S)-6-chloro-4-((1-(5-chloro-4-oxo-3-phenyl-3,4-dihydroquinazoline-2-yl)ethyl)amino)pyrido[2,3-d]pyrimidine-5(8H)-one] | > 500 | > 500 | 10 to 500 | < 10
7 | C[C@H](Nc1ncnc2[nH]ccc(=O)c12)c1nc2ccc(F)cc2cc1-c1ccccn1 [Example 7-1, (S)-4-((1-(6-fluoro-3-(pyridine-2-yl)quinoline-2-yl)ethyl)amino)pyrido[2,3-d]pyrimidine-5(8H)-one] | > 500 | > 500 | > 500 | 10 to 500
8 | C[C@H](Nc1ncnc2[nH]cc(Cl)c(=O)c12)c1cc2cccc(Cl)c2c(=O)n1-c1ccccc1 [Example 23, (S)-6-chloro-4-((1-(8-chloro-1-oxo-2-phenyl-1,2-dihydroisoquinoline-3-yl)ethyl)amino)pyrido[2,3-d]pyrimidine-5(8H)-one] | > 500 | > 500 | 10 to 500 | < 10
9 | CCN1CNc2ncnc(N[C@@H](C)c3cc4cccc(Cl)c4c(=O)n3-c3ccccc3)c2C1=O [Example 60, (S)-5-(1-(8-chloro-1-oxo-2-phenyl-1,2-dihydroisoquinoline-3-yl)ethylamino)-3-ethyl-2,3-dihydropyrimido[4,5-d]pyrimidine-4(1H)-one] | > 500 | > 500 | 10 to 500 | 10 to 500
10 | C[C@H](Nc1ncnc2[nH]ccc(=O)c12)c1nc2cccc(Cl)c2c(=O)n1-c1cc(F)cc(F)c1 [Example 4, (S)-4-((1-(5-chloro-3-(3,5-difluorophenyl)-4-oxo-3,4-dihydroquinazoline-2-yl)ethyl)amino)pyrido[2,3-d]pyrimidine-5(8H)-one] | > 500 | > 500 | 10 to 500 | < 10
11 | C[C@H](Nc1ncnc2[nH]ccc(=O)c12)c1nc2cccc(Cl)c2c(=O)n1-c1ccccn1 [Example 3, (S)-4-((1-(5-chloro-4-oxo-3-(pyridine-2-yl)-3,4-dihydroquinazoline-2-yl)ethyl)amino)pyrido[2,3-d]pyrimidine-5(8H)-one] | > 500 | > 500 | 10 to 500 | < 10

Now from value to molecule:

Row | IC50 [1] [nM] | IC50 [2] [nM] | IC50 [3] [nM] | IC50 [4] [nM] | SMILES
12 | 10 to 500 | 10 to 500 | 10 to 500 | < 10 | C[C@H](Nc1nc(N)nc2[nH]ccc(=O)c12)c1cc2cccc(Cl)c2c(=O)n1-c1ccccc1 [Example 15, (S)-2-amino-4-((1-(8-chloro-1-oxo-2-phenyl-1,2-dihydroisoquinoline-3-yl)ethyl)amino)pyrido[2,3-d]pyrimidine-5(8H)-one]
13 | > 500 | > 500 | 10 to 500 | < 10 | C[C@H](Nc1ncnc2[nH]ccc(=O)c12)c1cc2ccc(F)cc2nc1-c1ccccn1 [Example 9, (S)-4-(1-(7-fluoro-2-(pyridine-2-yl)quinoline-3-yl)ethylamino)pyrido[2,3-d]pyrimidine-5(8H)-one]
14 | > 500 | > 500 | > 500 | > 500 | CCCN1CNc2ncnc(N[C@@H](C)c3cc4cccc(Cl)c4c(=O)n3-c3ccccc3)c2C1=O [Example 61, (S)-5-(1-(8-chloro-1-oxo-2-phenyl-1,2-dihydroisoquinoline-3-yl)ethylamino)-3-propyl-2,3-dihydropyrimido[4,5-d]pyrimidine-4(1H)-one]
15 | > 500 | > 500 | > 500 | > 500 | C[C@H](Nc1ncnc2c1C(=O)N(C1CC1)CN2)c1cc2cccc(Cl)c2c(=O)n1-c1ccccc1 [Example 62, (S)-5-(1-(8-chloro-1-oxo-2-phenyl-1,2-dihydroisoquinoline-3-yl)ethylamino)-3-cyclopropyl-2,3-dihydropyrimido[4,5-d]pyrimidine-4(1H)-one]
16 | 10 to 500 | 10 to 500 | 10 to 500 | 10 to 500 | C[C@H](Nc1nc(N)nc2[nH]cnc(=O)c12)c1cc2ccccc2nc1-c1ccccc1 [Example 88, (S)-7-amino-5-((1-(2-phenylquinoline-3-yl)ethyl)amino)pyrimido[4,5-d]pyrimidine-4(1H)-one]
17 | > 500 | > 500 | > 500 | > 500 | C[C@H](Nc1ncnc2c1C(=O)N(C1CCCC1)CN2)c1cc2cccc(Cl)c2c(=O)n1-c1ccccc1 [Example 63, (S)-5-(1-(8-chloro-1-oxo-2-phenyl-1,2-dihydroisoquinoline-3-yl)ethylamino)-3-cyclopentyl-2,3-dihydropyrimido[4,5-d]pyrimidine-4(1H)-one]
